Data from US5135849A, “In-vitro methods for identifying compositions which are agonists and antagonists of androgens” (priority 1989, dated 1992).
Like-named read-outs stand apart in the source and are kept apart here.

Key:
LNCaP cells [1] = assay: Phase 1 protocol to identify androgen agonist properties (LNCaP cell proliferation in CDHS medium); assay type: cell-based, human; conditions: for cell yields compared with DHT alone, in words: 3×10^-8 M; for cell yields compared with DHT alone, in words / PHASE 1 CELL COUNT / OPTIMAL TEST CONC. (Phase 1): 10% CDHS; for CHARACTERISTICS: classification from Phase 1 and Phase 2 protocols; for PHASE 1 CELL COUNT: final cell number per well at the optimal test conc.; for agonistic / proliferative activity, in words: Phase 1 protocol, CDHS-supplemented media; for RELATIVE PROLIFERATIVE POTENCY: Table II, 5α-DHT = 1.0, 5 × 10^4 cell inoculum grown in CDHS for 8 days
Text: This protocol measures the potential agonistic properties of the substance under test. All manipulations are to be carried out under sterile conditions using disposable plastic tissue culture multiwell plates with all manipulations preferrably being performed in a tissue culture hood.
1. The cell line of choice is the LNCaP-FGC cell culture, an androgen-sensitive prostate tumor cell line. The LNaP cell line is routinely grown in 5% fetal bovine serum--supplemented Dulbecco's modified Eagle minimal essential medium (hereinafter "5% FBS/DME"), at 37° C. in a 95% air--5% CO2 atmosphere.
2. The cultured cells growing in 5% FBS/DME are harvested by treatment with trypsin (1:250)--EDTA (0.2%). The cells are detached by brief exposure to trypsin for about two minutes. To avoid excessive proteolysis, the reaction is quenched by addition of equal volumes of 5% FBS/DME. The resulting cell suspension is collected into a sterile centrifuge tube and resuspended by pipetting gently. The aliquots of this cell suspension thus obtained are dispersed by means of a Skatron dispenser into individual wells containing the seedling medium (1 ml of 5% FBS/DME per well) of a multiwell plate. Each final prepared suspension preferably contains 50,000 cells in a volume of 1.0 ml. It is desirable that the number of cells be counted and verified by means of a Coulter Counter (Coulter Electronics, Hialeah, FL).
The number of wells in each plate will correspond to the number of concentrations per test substances to be evaluated and thus is merely a question of choice or convenience to the user. Into each well, 25 microliter (hereinafter "ul") aliquots of the prepared cell suspension are added using a 1.0 ml syringe fitted with a 19 gauge needle attached to a repetitive Dunn pipetter (Skatron Dispenser). The microtiter plate is then gently shaken to avoid unequal cell distribution within each individual well. The seeded cells are then allowed to attach to the plastic surface of the well proper over a period of 24-72 hours' duration after which the fluid is changed to the experimental maintaining medium.
3 At the time of test, all the seeded cells in each well of the multiwell plate receive 10% heat inactivated--charcoal-dextran human stripped serum (CDHS) in DME at a volume of 0.9 ml per well. Although higher concentrations of CDHS may be utilized up to and including 40% concentrations, the 10% concentration is most preferred.
5. To the other prepared (seeded) wells, 100 ul of the test substance to be evaluated is added as a 10X stock solution to achieve final concentrations ranging from 10^-5 M to at least 10^-12 M. The substance under test is preferably prepared as a stock solution in ethanol, most preferrably as a 10^-3 M solution. All dilutions from the stock preparation are made using DME. The ethanol concentration in the culture medium should be kept below […] by volume. This preparative technique and precaution avoids the need to filter the various volumes of test substance to achieve sterility. This is particularly valuable because steroidal compositions are known to become adsorbed to the commercially obtained filter membranes used for sterilization. The addition of the test substance in appropriate concentrations to the cultured cells and the maintaining medium forms a series of individual reaction mixtures, each of which is varied only by the concentration of the test substance present in the well.
6. After the series of individual reaction mixtures are formed, all of the cultured cells under test in each well of the microtiter plate are incubated at 37° C. preferably in an atmosphere of 5% CO2 /95% air under saturating humidity. During this incubation time, it is desired and preferred that the cultured cells employed in the test be maintained in an atmosphere most advantageous for survival and growth of that cell line. The incubation period preferably is in the range of from 5 to 7 days' duration.

LNCaP cells [2] = assay: Phase 2 protocol for androgen antagonistic properties (LNCaP proliferation with 3×10^-10 M 5α-DHT plus test substance); conditions: for antagonistic activity, in words: Phase 2 protocol
androgen receptor = target: T1, androgen receptor (Homo sapiens, UniProt P10275, T878A); assay: Competition for androgen receptors with 3H-testosterone in LNCaP cytosol-nuclear extracts (RBA); assay type: binding; conditions: Table II, 5α-DHT = 100; 6×10^-9 M 3H-testosterone
T1 construct: the presence of specific androgen receptors in LNCaP cells; endogenous in cells; extract or intact cells for the saturation analysis
Experimental: Steroid receptors measurement: The presence of intracellular sex steroid binding proteins was investigated in whole cell extracts as well as in intact cells. Cytosolic and nuclear extracts were obtained after centrifugation (105,000 g, 45 min.) of a sonicated cellular suspension in TKE buffer (10 mM Tris, 500 mM KCl, 0.5 mM EDTA, pH 7.4). Aliquots of this extract were incubated for 18 hours at 4° C. with increasing concentrations (2×10^- M to 2×10^-8 M) of labelled steroids, with and without a 200-fold excess of the corresponding unlabelled steroid. Bound and free fractions were separated by dextran-coated charcoal adsorption. Intact cells grown in monolayer culture were assayed for specific steroid binding [Olea-Serrano et al., Eur. J. Cancer Clin. Oncol. 21:965-973 (1983)]. Briefly, the cells were incubated in 12-well plates during 50 minutes at 37° C. in DME containing the labelled steroid with and without excess of cold competitor. The range of concentrations used was the same as that in the cytosolic-nuclear extract assay. […] The intracellular radioactivity was extracted with ethanol after ice-cold PBS washing. In both types of experiments, Scatchard analysis of the saturation data was used to quantify the maximal binding capacity (Bmax) and the affinity parameters (dissociation constant, Kd) using the SCAFIT program [Munson et al., Anal. Biochem. 107:220-239 (1980)].
Cytosol-nuclear extracts were used to study competition for androgen receptors. […] The relative binding affinity (RBA) was calculated from the equation: […]

[3] = with 3×10^-10 M 5α-DHT, 10% CDHS

T1 sequence (P10275 whole entry T878A): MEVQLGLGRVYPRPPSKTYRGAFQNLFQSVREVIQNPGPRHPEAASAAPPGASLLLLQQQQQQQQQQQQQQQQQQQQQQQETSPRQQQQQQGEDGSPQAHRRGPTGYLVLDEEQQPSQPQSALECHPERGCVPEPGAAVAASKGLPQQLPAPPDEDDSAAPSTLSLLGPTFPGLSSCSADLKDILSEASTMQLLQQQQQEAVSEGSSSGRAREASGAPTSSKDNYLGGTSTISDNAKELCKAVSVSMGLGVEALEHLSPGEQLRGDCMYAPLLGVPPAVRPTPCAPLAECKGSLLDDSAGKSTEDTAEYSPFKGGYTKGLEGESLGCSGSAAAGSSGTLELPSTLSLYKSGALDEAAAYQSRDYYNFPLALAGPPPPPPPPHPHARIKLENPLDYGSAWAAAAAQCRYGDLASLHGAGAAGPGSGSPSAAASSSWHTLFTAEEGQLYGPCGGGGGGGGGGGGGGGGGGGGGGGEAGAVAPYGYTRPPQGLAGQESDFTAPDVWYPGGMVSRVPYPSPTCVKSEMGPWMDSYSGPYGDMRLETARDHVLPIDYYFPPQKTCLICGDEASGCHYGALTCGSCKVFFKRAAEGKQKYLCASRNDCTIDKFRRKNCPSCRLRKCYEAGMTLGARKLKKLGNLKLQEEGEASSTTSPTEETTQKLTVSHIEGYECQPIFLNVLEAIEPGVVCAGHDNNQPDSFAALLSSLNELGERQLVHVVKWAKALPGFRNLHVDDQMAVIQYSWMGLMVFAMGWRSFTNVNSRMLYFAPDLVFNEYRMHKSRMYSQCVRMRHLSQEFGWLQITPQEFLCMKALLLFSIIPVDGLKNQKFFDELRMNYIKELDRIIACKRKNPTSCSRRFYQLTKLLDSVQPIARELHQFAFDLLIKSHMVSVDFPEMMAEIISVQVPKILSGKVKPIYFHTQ

Molecule | CHARACTERISTICS (LNCaP cells [1]) | PHASE 1 CELL COUNT (LNCaP cells [1]) | other results
CC1(C)NC(=O)N(c2ccc([N+](=O)[O-])c(C(F)(F)F)c2)C1=O [anandron, 5,5-dimethyl-3-(4-nitro-3-(trifluoromethyl)-phenyl)-2,4-imidasolidinedione] | full agonist | 4.0 × 10^5 | cell yields compared with DHT alone, in words (LNCaP cells [1]): increased cell yields at values consistently above those obtained with DHT alone
C[C@]12CCC(=O)C[C@@H]1CC[C@@H]1[C@@H]2CC[C@]2(C)[C@@H](O)CC[C@@H]12 [5α-DHT, 5α-dihydrotestosterone] | full agonist | 2.5 × 10^5 | –
CC(=O)O[C@]1(C(C)=O)CC[C@H]2[C@@H]3C[C@H](C)C4=CC(=O)CC[C@]4(C)[C@H]3CC[C@@]21C [medroxy progesterone, medroxyprogesterone acetate] | full agonist | 4.0 × 10^5 | OPTIMAL TEST CONC. (Phase II) (LNCaP cells [2]): 3 µM; PHASE II CELL COUNT (LNCaP cells [2]): 4.0 × 10^5; antagonistic activity, in words (LNCaP cells [2]): absence of antagonistic effects
C[C@@H]1CC2=CC(=O)CC[C@@H]2[C@H]2CC[C@@]3(C)[C@@H](CC[C@]3(C)O)[C@@H]21 [mibolerone, 7α,17α-dimethyl-19-nortestosterone] | full agonist | 2.5 × 10^5 | –
CC(C)C(=O)Nc1ccc([N+](=O)[O-])c(C(F)(F)F)c1 [flutamide] | quiescent | 5 × 10^4 | agonistic / proliferative activity, in words (LNCaP cells [1]): devoid of activity
CCC(=O)C1(C)CCC2C3CCC4=CC(=O)CCC4=C3CCC21C (centres unmarked) [R5020, 17βmethyl-,21-methyl-19-nor-pregna-4,9-diene-3,10-dione] | full agonists | 4.0 × 10^5 | agonistic / proliferative activity, in words (LNCaP cells [1]): effective and potent androgen agonists; RELATIVE PROLIFERATIVE POTENCY (LNCaP cells [1]): 0.01; RBA (relative binding affinity to the androgen receptor) (androgen receptor): 11; antagonistic activity, in words (LNCaP cells [2]): no antagonistic activity
CC(=O)[C@H]1CC[C@H]2[C@@H]3CC=C4C[C@@H](O)CC[C@]4(C)[C@H]3CC[C@]12C [pregnenolone] | full agonist | 3.9 × 10^5 | proliferative potency (LNCaP cells [1]; compared with 5α-DHT values): 1%
CC(=O)O[C@]1(C(C)=O)CC[C@H]2[C@@H]3C=C(Cl)C4=CC(=O)[C@@H]5C[C@@H]5[C@]4(C)[C@H]3CC[C@@]21C [cyproterone acetate] | full agonist | 4.1 × 10^5 | cell yields compared with DHT alone, in words (LNCaP cells [1]): increased cell yields at values consistently above those obtained with DHT alone
epidermal growth factor: Epidermal Growth Factor (Collaborative Research; Creative Biomolecules) (NSDSECPLSHDGYCLHDGVCMYIEALDKYACNCVVGYIGERCQYRDLKWWELR; Epidermal growth factor; UniProt P01133 971-1023, looked up) | quiescent | – | OPTIMAL TEST CONC. (Phase 1) (LNCaP cells [1]): 100 ng/mL; OPTIMAL TEST CONC. (Phase II) (LNCaP cells [2]; [3]): 100 ng/mL
C[C@]12C[C@H](CCl)[C@@H]3c4ccc(O)cc4CC[C@H]3[C@@H]1CC[C@@H]2O [Org 4333, 11β-chloromethyl estradiol] | full agonists | 4.0 × 10^5 | RELATIVE PROLIFERATIVE POTENCY (LNCaP cells [1]): 0.01; RBA (relative binding affinity to the androgen receptor) (androgen receptor): 1.2; antagonistic activity, in words (LNCaP cells [2]): no antagonistic activity
C[C@]12CCC(=O)C=C1CC[C@@H]1[C@@H]2[C@@H](O)C[C@@]2(C)[C@H]1CC[C@]2(O)C(=O)CO [hydrocortisone] | quiescent | 5 × 10^4 | –
C[C@]1(O)CC[C@H]2[C@@H]3CCC4=CC(=O)CCC4=C3C=C[C@@]21C [R1881, 17β-hydroxy-17α-methyl-estra-4,9,11-trien-3-one] | full agonists | 2.5 × 10^5 | antagonistic activity, in words (LNCaP cells [2]): no antagonistic activity
C[C@]12CCC(=O)C[C@H]1CC[C@@H]1[C@@H]2CC[C@]2(C)[C@@H](O)CC[C@@H]12 [5β-DHT, 5β-dihydrotestosterone] | full agonist | 2.5 × 10^5 | –
CC(=O)[C@H]1CC[C@H]2[C@@H]3CCC4=CC(=O)CC[C@]4(C)[C@H]3CC[C@]12C [progesterone] | full agonists | 4 × 10^5 | agonistic / proliferative activity, in words (LNCaP cells [1]): effective and potent androgen agonists; antagonistic activity, in words (LNCaP cells [2]): no antagonistic activity
C[C@]12CC[C@@H]3c4ccc(O)cc4CC[C@H]3[C@@H]1CCC2=O [Estrone, estrone] | – | – | RBA (relative binding affinity to the androgen receptor) (androgen receptor): 0.1
C[C@]12CC[C@H]3[C@@H](CCC4=CC(=O)CC[C@@]43C)[C@@H]1CC[C@@H]2O [testosterone] | full agonist | 2.6 × 10^5 | agonistic / proliferative activity, in words (LNCaP cells [1]): proliferative pattern similar to that obtained with 5α-DHT
C[C@]12CC[C@@H](O)C[C@@H]1CC[C@@H]1[C@@H]2CC[C@]2(C)[C@@H](O)CC[C@@H]12 [3α-diol, 5α-androstene, 3α,17β-diol] | full agonist | 2.5 × 10^5 | –
insulin: Insulin (Eli Lilly Company) | quiescent | 5 × 10^4 | OPTIMAL TEST CONC. (Phase 1) (LNCaP cells [1]): 100 ng/mL; OPTIMAL TEST CONC. (Phase II) (LNCaP cells [2]; [3]): 100 ng/mL
